Tests used:
[1] = tested on: CTSD and CTSE in SH-SY5Y cells; test: CTSD and CTSE activity assay with fluorogenic substrate; assay type: cell-based, human; conditions: Aβ 1 µM, 24 h, per µg total cellular protein, compared to control cells
Method: Cells were seeded in a 96-well plate (12000 cells/well, D1) and treated with different Aβ variants (primary cortical neurons, DIV14–500 nM, 4 h; SH-SY5Y cells, D3–1 μM, 24 h) in neurobasal, FCS-/PS- media. After the treatment, the supernatant was discarded, and cells were washed with PBS once. Cells were lysed by solubilizing the plasma membrane and intracellular membranes by adding 50 μL of 200 μg/mL digitonin in acetate buffer to the wells followed by incubation on ice for 15 min. Additionally, 50 μL of the Omnicathepsin D & E fluorogenic substrate (Enzo Life sciences, BML-P145) in sodium acetate buffer was added to the lysates in the wells for a final concentration of 30 μM of substrate and 10 mM DTT. Plate was incubated for 25 min at RT and the reaction was stopped by addition of 10 µl of ethanol. The relative amount of substrate cleavage in each well was computed using multiplate reader at λEx 380 nm and λEm 460 nm. Values were normalized and represented as fold-change with respect to control cells. Graphs in Figure 7G and S7F represent data from 3 independent experiments (n = 9).

SH-SY5Y cells = test: Autophagic flux with tandem reporter GFP-LC3-RFP-LC3Δ; assay type: cell-based, human; conditions: Aβ 1 µM, 24 h; compared to control cells; n = 6, N = 3
Method: SH-SY5Y cells were transfected with either GFP-LC3-LC3Δ-RFP or mCherry-GFP-LC3B tandem constructs (0.5 μg/well +1 µl transfection reagent − 24 well plate) with Lipofectamine 2000 (Life Technologies, 11668019) in OptiMEM (Life Technologies, 11058021) in DMEM/F-12, FCS^− PS^− media. After 8 h, FCS^− PS^− media was changed to normal culture media, respectively. Transfection efficiency was around 50–60% in all analyzed coverslips.
SH-SY5Y cells seeded on D1, were treated with Aβ variants (1 μM) on D3 in DMEM/F-12 media without serum and antibiotics. Control treatment included treatment with equal volume of 10 mM NaOH solution used for preparing the Aβ stock solutions, in respective cell culture medium. […]
All images were processed and analyzed using Fiji ImageJ software. […] Distance from the plaque core (Figure 1B) was measured using the concentric circles plugin module. Fluorescence intensity of the green channel (Figure S3A-B), and the number of neurons positive for Aβ signals (Figure S3-D) were quantified using the processing module of Keyence software. […] Intensity of green and red channel for a particular ROI was calculated and ratios of the individual values were computed (Figure 6B and S7A). For computing the number of mCherry^+GFP^± vesicles or per cell (Figure 6D and S7B), cell outline was drawn manually and number of vesicles per cell (nucleus count – DAPI) was calculated. […]

Row | Substance | Activity of lysosomal CTSD and CTSE [1] | RFP:GFP ratio (autophagic flux) (SH-SY5Y cells)
1 | amyloid-β phosphorylated at serine residue 8 [p-Ser8Aβ] | no significant effect | –
2 | amyloid-β phosphorylated at serine residue 26 [p-Ser26Aβ] | increased activity | –
3 | non-phosphorylated amyloid-β [npAβ, reference compound] | – | tended to increase
